# Results from patent US20070004721A1, “Pteridine derivatives for the treatment of septic shock and tnf-a-related diseases” (priority 2003, published 2007).
# How the values were obtained:
# [1] = tested on: human TNF-α; experiment: TNF-α assay: suppression of TNF-α production by LPS-stimulated PBMC (sandwich ELISA); type: cell-based; settings: LPS 1 μg/ml, 72 hours at 37° C.
# Procedure: (§1) Peripheral blood mononuclear cells (herein referred as PBMC), in response to stimulation by lipopolysaccharide (LPS), a gram-negative bacterial endotoxin, produce various […], in particular human TNF-α and IL-1β. The inhibition of the activation of PBMC can be measured by the level of suppression of the production of TNF-α or IL-1β by PBMC in response to stimulation by LPS.
# (§2) Such inhibition measurement was performed as follows: PBMC were isolated from heparinized peripheral blood (Buffy coat) by density gradient centrifugation. LPS is then added to the PMBC suspension in complete medium (10^6 cells/ml) at a final concentration of 1 μg/ml. The pteridine derivative to be tested was added at different dilution levels, and the cells were incubated at 37° C. for 72 hours. The supernatants were collected, and TNF-α or IL-1β concentrations were measured with respectively an anti-TNF antibody or an anti-IL-1β antibody in a sandwich ELISA (Duo Set ELISA human TNFα, commercially available from R&D Systems, United Kingdom). The colorimetric reading of the ELISA was measured by a Multiskan RC plate reader (commercially available from ThermoLabsystems, Finland) at 450 nm (reference wavelength: 690 nm). Data analysis was performed with Ascent software 2.6. (also from ThermoLabsystems, Finland): a standard curve (recombinant human TNFα) was drawn and the amount (pg/ml) of each sample on the standard curve was determined.
# (§3) The % inhibition of human TNF-α production or human IL-1β was calculated using the formula: % inhibition=[…] wherein: min.: pg/ml in culture medium without test compound, and
# (§4) max.: pg/ml in culture medium+LPS without test compound.
# [2] = tested on: human IL-1β; experiment: IL-1β assay: suppression of IL-1β production by LPS-stimulated PBMC (sandwich ELISA); type: cell-based; settings: LPS 1 μg/ml, 72 hours at 37° C.
# Procedure: as §1, §2, §3, §4
# [3] = tested on: C57BL/6 male mice; experiment: Protection against a lethal dose of TNF-α (TNF-α induced shock); type: in vivo; settings: for Animals surviving 48 hours after TNF-α administration: TNF-α 10 μg i.v., 20 mg/kg/day i.p. three injections, total animals 9, 6, 6
# Procedure: A model of TNF-α induced shock in C57BL/6 male mice was performed as follows. Animals from the control group received an Intravenous administration of a lethal dose of TNF-α (10 μg) in the tail. Animals from the test group received three intraperitoneous injections of a pteridine derivative (20 mg/kg/day) respectively 48 hours, 24 hours and immediately before an intravenous injection of TNF-α (10 μg).
# [4] = tested on: C3H mice; experiment: Protection against lethal toxic shock (LPS injection); type: in vivo
# [5] = tested on: melanoma (B16BL/6) in C57BL6 (B6) mice; experiment: Reduction of tumor growth while inhibiting TNF-α toxicity, melanoma tumor model; type: in vivo
# Procedure: A tumor model of melanoma (B16BL/6) in C57BL6 (B6) mice was performed as follows. On day 1, a group of 18 B6 mice were injected with 1.5×10^6 B16BL/6 melanosarcoma cells. The group was further divided into the following subgroups 3 days after the tumor cells injection: • a first control sub-group of 6 mice received vehicle (physiological solution) 3 times a week starting on day 3; • a second control subgroup of 5 mice received TNF-α (15 μg) on day 5 and, for surviving animals, TNF-α was again administered 3 times a week for 2 weeks; • a test sub-group of 7 mice intraperitoneously received the pteridine derivative of example 24 at a dose of 20 mg/kg on each of days 3, 4 and 5; the latter third injection on day 5 occurred 2 hours before a first TNF-α intravenous injection (15 μg). Then the test compound (20 mg/kg/day) and TNF-α (15 μg/day) were administered each subcutaneously 3 times a week for 2 weeks.
# [6] = group of 16 C3H mice, 100 μg LPS i.p., 20 mg/kg/day i.p. for 2 days
Compound,IC50 [1],other results
"CCOc1nc(N)nc2ncc(-c3cccc(OC)c3)nc12 [Example 68, 2-amino-6-(m-methoxyphenyl)-4-ethoxy-pteridine]",10 µM,
"CC(C)Oc1nc(N)nc2ncc(-c3ccsc3)nc12 [Example 94, 2-amino-6-(3-thienyl)-4-isopropoxypteridine]",7.6 µM,
"CCOc1nc(N)nc2ncc(-c3ccccc3OC)nc12 [Example 67, 2-amino-6-(o-methoxyphenyl)-4-ethoxy-pteridine]",10 µM,
"CC(C)Oc1nc(N)nc2ncc(-c3ccc(F)c(Cl)c3)nc12 [Example 87, 2-amino-6-(3-chloro-4-fluorophenyl)-4-isopropoxypteridine]",7.5 µM,
"CCOc1nc(N)nc2ncc(-c3ccc(F)cc3)nc12 [Example 77, 2-amino-6-(p-fluorophenyl)-4-ethoxy-pteridine]",8.1 µM,
"CCOc1nc(N)nc2ncc(-c3ccc(F)c(C)c3)nc12 [Example 80, 2-amino-6-(3-methyl-4-fluorophenyl)-4-ethoxy-pteridine]",6.8 µM,
"Nc1nc(N2CCOCC2)c2nc(-c3cccc(NC(=O)C4CCCCC4)c3)cnc2n1 [Example 175, 2-amino-4-morpholino-6-(3-cyclohexanoylaminophenyl)pteridine]",5 µM,
"Nc1nc(N2CCOCC2)c2nc(-c3cccc(NS(=O)(=O)c4ccccc4)c3)cnc2n1 [Example 172, 2-amino-4-morpholino-6-(3-benzensulfonylaminophenyl)pteridine]",0.5 µM,
"COc1ccc(-c2cnc3nc(NCc4ccccc4)nc(N)c3n2)cc1OC [Example 145, 2-benzylamino-4-amino-6-(3,4-dimethoxyphenyl)pteridine]",9.3 µM,
"Nc1nc(N2CCOCC2)c2nc(-c3ccc(NC(=O)c4ccncc4)cc3)cnc2n1 [Example 166, 2-amino-4-morpholino-6-(4-isonicotinoylaminophenyl)pteridine]",4.4 µM,
"Nc1nc(N2CCOCC2)c2nc(-c3cccc(NC(=O)COCc4ccccc4)c3)cnc2n1 [Example 179, 2-amino-4-morpholino-6-(3-benzyloxyacetylaminophenyl)pteridine]",7.7 µM,
"CCOc1nc(N)nc2ncc(-c3cccs3)nc12 [Example 72, 2-amino-6-(2-thienyl)-4-ethoxy-pteridine]",8.5 µM,
"CC(C)Oc1nc(N)nc(N)c1N [Example 59, 2,5,6-triamino-4-isopropoxy-pyrimidine]",8 µM,
"CCOc1nc(N)nc2ncc(-c3ccc(OC)c(OC)c3)nc12 [Example 83, 2-amino-6-(3,4-dimethoxyphenyl)-4-ethoxy-pteridine]",6.6 µM,
"Nc1nc(N2CCOCC2)c2nc(-c3cccc(NC(=O)c4ccccc4)c3)cnc2n1 [Example 171, 2-amino-4-morpholino-6-(3-benzoylaminophenyl)pteridine]",4.3 µM,
"Cc1ccc(-c2cnc3nc(N)nc(OC(C)C)c3n2)cc1C [Example 85, 2-amino-6-(3,4-dimethylphenyl)-4-isopropoxypteridine]",,IC50 ([2]; Homo sapiens): > 40 µM
"CCOc1ccc(-c2cnc3nc(N)nc(N4CCOCC4)c3n2)cc1 [Example 186, 2-amino-4-morpholino-6-(4-ethoxyphenyl)pteridine]",10 µM,
"COc1ccc(-c2cnc3nc(N)nc(N4CCOCC4)c3n2)cc1OC [Example 24, 2-amino-4-morpholino-6-(3,4-dimethoxyphenyl)pteridine]",,"Animals surviving 48 hours after TNF-α administration [3]: 7; body temperature ([3]; followed for 48 hours after TNF-α 10 μg i.v., 20 mg/kg/day i.p. 48 h, 24 h and immediately before, control 28.2° C.): 30.1 °C; animals permanently survived the challenge of a LPS lethal dose [4, 6]: 14; animals showing a significantly prolonged survival [4, 6]: 2; prolonged survival ([4]; the 2 animals that did not survive permanently, controls die within 1-3 days): 5 days; average tumor size (largest diameter multiplied by smallest diameter) ([5]; after two weeks treatment together with TNF-α, first control group 439 mm^2): 144 mm^2; animals of the test sub-group survived ([5]; out of 7 tumor bearing mice, 20 mg/kg plus TNF-α 15 μg, second control group all died): 5; IC50 ([2]; Homo sapiens): 5.5 µM"
"CCS(=O)(=O)Nc1cccc(-c2cnc3nc(N)nc(N4CCOCC4)c3n2)c1 [Example 180, 2-amino-4-morpholino-6-(3-ethylsulfonylaminophenyl)pteridine]",10 µM,
"COc1ccc(-c2cnc3nc(N)nc(OC(C)C)c3n2)cc1OC [Example 98, 2-amino-6-(3,4-dimethoxyphenyl)-4-isopropoxypteridine]",3.5 µM,Animals surviving 48 hours after TNF-α administration [3]: 3; IC50 ([2]; Homo sapiens): > 40 µM
"Nc1nc(N2CCOCC2)c2nc(-c3cccc(NC(=O)c4ccncc4)c3)cnc2n1 [Example 174, 2-amino-4-morpholino-6-(3-isonicotinoylaminophenyl)pteridine]",7.3 µM,
"CC(=O)c1ccc(-c2cnc3nc(N)nc(OC(C)C)c3n2)cc1 [Example 97, 2-amino-6-(p-acetylphenyl)-4-isopropoxypteridine]",9.1 µM,
"Nc1nc(N2CCOCC2)c2nc(-c3ccc(NC(=O)COc4ccccc4)cc3)cnc2n1 [Example 160, 2-amino-4-morpholino-6-(4-phenoxyacetylaminophenyl)pteridine]",4.9 µM,
"CCOc1ccc(-c2cnc3nc(N)nc(OC(C)C)c3n2)cc1 [Example 92, 2-amino-6-(p-ethoxyphenyl)-4-isopropoxypteridine]",10 µM,
"COc1ccc(-c2cnc3nc(NCc4cccs4)nc(N)c3n2)cc1OC [Example 143, 2-(2-thienylmethylamino)-4-amino-6-(3,4-dimethoxyphenyl)pteridine]",10 µM,
"COc1ccc(-c2cnc3nc(N)nc(N4CC=CCC4)c3n2)cc1OC [Example 119, 2-amino-4-(1,2,3,6-tetrahydropyridinyl)-6-(3,4-dimethoxyphenyl)pteridine]",,Animals surviving 48 hours after TNF-α administration [3]: 3; IC50 [2]: 15 µM
"CC(C)Oc1nc(N)nc2ncc(Cl)nc12 [Example 65, 2-amino-6-chloro-4-isopropoxypteridine]",9.1 µM,
"CCCOc1ccc(-c2cnc3nc(N)nc(N4CCOCC4)c3n2)cc1 [Example 190, 2-amino-4-morpholino-6-(4-propoxy-phenyl)pteridine]",10 µM,
"COCCOc1ccc(-c2cnc3nc(N)nc(N4CCOCC4)c3n2)cc1 [Example 193, 2-amino-4-morpholino-6-(4-(2-methoxyethoxy)-phenyl)pteridine]",7.2 µM,
